# Test results from ChEMBL document CHEMBL1201862, “PubChem BioAssay data set” (2004).
#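 Step 1: Grow cells in 96-well plates. Step 2: Expose to compound for 48 hours at 5 concentrations. Step 3: Interpolate endpoints linearly; if unreached, use highest concentration. GI50 is the concentration that inhibits growth by half.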 The source made the active and inactive calls. No stated cut-off is given here; in the data, active = GI50 up to about 1.1 µM and inactive = higher.
# Columns and labels:
# Test in all cases: growth of human tumour cells (NCI), 48 h
# T47D = tested on: T47D
# OVCAR-5 = tested on: OVCAR-5
# MDA-MB-435 = tested on: MDA-MB-435
# NCI-H226 = tested on: NCI-H226
# SK-MEL-28 = tested on: SK-MEL-28
# IGROV-1 = tested on: IGROV-1
# A498 = tested on: A498
# HCT-116 = tested on: HCT-116
# OVCAR-3 = tested on: OVCAR-3
# HCC 2998 = tested on: HCC 2998
# PC-3 = tested on: PC-3
# SN12C = tested on: SN12C
# Hs-578T = tested on: Hs-578T
# SF-295 = tested on: SF-295
# COLO 205 = tested on: COLO 205
# MDA-N = tested on: MDA-N
# HOP-62 = tested on: HOP-62
# OVCAR-8 = tested on: OVCAR-8
# OVCAR-4 = tested on: OVCAR-4
# RPMI-8226 = tested on: RPMI-8226
Compound,GI50 (T47D),GI50 (OVCAR-5),GI50 (MDA-MB-435),GI50 (NCI-H226),GI50 (SK-MEL-28),GI50 (IGROV-1),GI50 (A498),GI50 (HCT-116),GI50 (OVCAR-3),GI50 (HCC 2998),GI50 (PC-3),GI50 (SN12C),GI50 (Hs-578T),GI50 (SF-295),GI50 (COLO 205),GI50 (MDA-N),GI50 (HOP-62),GI50 (OVCAR-8),GI50 (OVCAR-4),GI50 (RPMI-8226)
Cc1ncc([N+](=O)[O-])n1CCNC(=O)Cn1c([N+](=O)[O-])cnc1C,> 100 µM (inactive),> 100 µM (inactive),> 100 µM (inactive),> 100 µM (inactive),> 100 µM (inactive),> 100 µM (inactive),> 100 µM (inactive),> 100 µM (inactive),> 100 µM (inactive),> 100 µM (inactive),> 100 µM (inactive),> 100 µM (inactive),> 100 µM (inactive),> 100 µM (inactive),> 100 µM (inactive),> 100 µM (inactive),> 100 µM (inactive),> 100 µM (inactive),,
CC(C)(C)c1cc(Br)c(O)c(CN(Cc2cc(C(C)(C)C)cc(Br)c2O)C2CCCCC2)c1,9.68 µM (inactive),15.7 µM (inactive),14.3 µM (inactive),15.6 µM (inactive),15.5 µM (inactive),15.3 µM (inactive),13.5 µM (inactive),12.5 µM (inactive),11.9 µM (inactive),,14.9 µM (inactive),14.8 µM (inactive),13.1 µM (inactive),12.7 µM (inactive),11.2 µM (inactive),14.5 µM (inactive),15.2 µM (inactive),15.1 µM (inactive),10.5 µM (inactive),11.8 µM (inactive)
COc1ccc2c(c1)Cc1cc(/N=[N+](\[O-])c3ccc4c(c3)Cc3cc(OC)ccc3-4)ccc1-2,38.5 µM (inactive),> 100 µM (inactive),27.1 µM (inactive),70.3 µM (inactive),75.2 µM (inactive),24 µM (inactive),35.6 µM (inactive),60.7 µM (inactive),48.8 µM (inactive),14.2 µM (inactive),35.9 µM (inactive),> 100 µM (inactive),54 µM (inactive),67.3 µM (inactive),15.3 µM (inactive),29.7 µM (inactive),43.9 µM (inactive),38.6 µM (inactive),40 µM (inactive),
CCCC(=O)OC1CC(n2cc(F)c(=O)[nH]c2=O)OC1COP(=O)(OCC(Cl)(Cl)Cl)OCC(Cl)(Cl)Cl (stereo unspecified),20.7 µM (inactive),28.4 µM (inactive),18.2 µM (inactive),65.2 µM (inactive),12.3 µM (inactive),14.8 µM (inactive),,3.18 µM (inactive),4.24 µM (inactive),< 0.01 µM (active),7.74 µM (inactive),22 µM (inactive),13.9 µM (inactive),0.167 µM (active),0.0614 µM (active),7.01 µM (inactive),0.131 µM (active),0.925 µM (active),16.9 µM (inactive),1.47 µM (inactive)
O=[N+]([O-])c1nccn1CCCNCCCn1ccnc1[N+](=O)[O-],> 100 µM (inactive),> 100 µM (inactive),> 100 µM (inactive),> 100 µM (inactive),> 100 µM (inactive),> 100 µM (inactive),> 100 µM (inactive),> 100 µM (inactive),> 100 µM (inactive),,> 100 µM (inactive),> 100 µM (inactive),> 100 µM (inactive),> 100 µM (inactive),> 100 µM (inactive),> 100 µM (inactive),> 100 µM (inactive),> 100 µM (inactive),> 100 µM (inactive),> 100 µM (inactive)
CC(=O)N1C(Nc2nccs2)CCN1c1ccccc1 (stereo unspecified),> 10 µM (inactive),> 10 µM (inactive),> 10 µM (inactive),> 10 µM (inactive),> 10 µM (inactive),> 10 µM (inactive),,> 10 µM (inactive),> 10 µM (inactive),> 10 µM (inactive),> 10 µM (inactive),> 10 µM (inactive),> 10 µM (inactive),> 10 µM (inactive),> 10 µM (inactive),> 10 µM (inactive),> 10 µM (inactive),> 10 µM (inactive),> 10 µM (inactive),> 10 µM (inactive)
C/C=C\C(CC(=O)NCCc1c[nH]c2ccccc12)CC(=O)OC (stereo unspecified),> 100 µM (inactive),> 100 µM (inactive),> 100 µM (inactive),,> 100 µM (inactive),> 100 µM (inactive),> 100 µM (inactive),> 100 µM (inactive),> 100 µM (inactive),> 100 µM (inactive),> 100 µM (inactive),,> 100 µM (inactive),> 100 µM (inactive),> 100 µM (inactive),> 100 µM (inactive),> 100 µM (inactive),> 100 µM (inactive),> 100 µM (inactive),> 100 µM (inactive)
